Laboratory results taken from the NIST ThermoML archive (doi:10.1021/acs.jced.8b00699).
Numbers after ± are expanded uncertainties.

Conditions: Liquid, Closed cell (Static) method

Row | SMILES | vapor or sublimation pressure (273.66 K) [kPa] | vapor or sublimation pressure (278.15 K) [kPa] | vapor or sublimation pressure (283.15 K) [kPa] | vapor or sublimation pressure (288.15 K) [kPa] | vapor or sublimation pressure (293.15 K) [kPa] | vapor or sublimation pressure (298.15 K) [kPa] | vapor or sublimation pressure (303.16 K) [kPa] | vapor or sublimation pressure (308.18 K) [kPa] | vapor or sublimation pressure (238.15 K) [kPa] | vapor or sublimation pressure (243.15 K) [kPa] | vapor or sublimation pressure (248.15 K) [kPa] | vapor or sublimation pressure (253.15 K) [kPa] | vapor or sublimation pressure (258.15 K) [kPa] | vapor or sublimation pressure (263.15 K) [kPa] | vapor or sublimation pressure (268.15 K) [kPa] | vapor or sublimation pressure (273.15 K) [kPa] | vapor or sublimation pressure (278.16 K) [kPa] | vapor or sublimation pressure (273.65 K) [kPa] | vapor or sublimation pressure (303.15 K) [kPa] | vapor or sublimation pressure (308.15 K) [kPa]
1 | CCCCCCCCC#N [nonanenitrile] | 0.00148 ± 0.00013 | 0.00231 ± 0.00015 | 0.0037 ± 0.00018 | 0.00585 ± 0.00025 | 0.00907 ± 0.00037 | 0.01387 ± 0.00053 | 0.02079 ± 0.00064 | 0.03074 ± 0.00079 |  |  |  |  |  |  |  |  |  |  |  | 
2 | CCCCCCC#N [heptanenitrile] | 0.01723 ± 0.00058 |  | 0.03801 ± 0.00091 | 0.05634 ± 0.0012 | 0.0819 ± 0.0017 | 0.1175 ± 0.0023 | 0.1649 ± 0.0027 | 0.2302 ± 0.0035 | 0.00048 ± 0.00011 | 0.00085 ± 0.00012 | 0.00146 ± 0.00013 | 0.00246 ± 0.00015 | 0.00408 ± 0.00019 | 0.00662 ± 0.00028 | 0.01055 ± 0.00042 | 0.01647 ± 0.00057 | 0.02527 ± 0.00071 |  |  | 
3 | CCCCCCCC#N [octanenitrile] |  | 0.00758 ± 0.00031 | 0.01175 ± 0.00047 | 0.01796 ± 0.00059 | 0.02693 ± 0.00073 | 0.0398 ± 0.00094 |  |  | 0.00012 ± 0.00011 | 0.00021 ± 0.00011 | 0.00037 ± 0.00012 | 0.00064 ± 0.00012 | 0.00108 ± 0.00012 | 0.0018 ± 0.00014 | 0.00295 ± 0.00016 | 0.00476 ± 0.00021 |  | 0.00502 ± 0.00022 | 0.05793 ± 0.0013 | 0.08314 ± 0.0017
